Test results reported in US20230405078A1, “DETECTION AND TREATMENT OF INTESTINAL FIBROSIS” (THE REGENTS OF THE UNIVERSITY OF CALIFORNIA, priority 2020, published 2023).

Tests used:
[1] = test system: primary human intestinal fibroblasts from CD patients; experiment: Elafin exposure of primary human intestinal fibroblasts from CD patients (Example 1); type: cell-based; conditions: elafin 24 hours
Procedure: FIG. 6. Elafin promotes fibrogenesis in human colonic fibroblasts. (A) The human colonic CCD-18Co fibroblasts were incubated with 100 μl/ml (10%) of human sera from normal, stricturing CD, and non-stricturing CD patients in serum-free DMEM for 24 hours. (B) The human colonic CCD-18Co fibroblasts were incubated with 100 μl/ml (10%) of human sera from high elafin CD group (>8000 pg/ml) and low elafin CD group (<8000 pg/ml) in serum-free DMEM for 24 hours. (C) Serum-starved CCD-18Co fibroblasts were pretreated with 15 μg/ml of anti-elafin neutralizing antibody or control antibody for 30 minutes, followed by exposure to (100 μl/ml) human sera from normal and stricturing CD patients for 24 hours. Six serum donors per group. […] Pro-COL1A1 protein levels in cell lysates were determined by ELISA. (E) Serum-starved primary human intestinal fibroblasts from CD patients were exposed to elafin for 24 hours. mRNA expression was determined by real-time RT-PCR. […]
Total RNA was isolated by an RNeasy kit (#74104, Qiagen) and reverse transcribed into cDNA by a high-capacity cDNA RT kit (#4368813, ThermoFisher). Quantitative PCR reactions were run with Fast Universal PCR master mix (#4352042, ThermoFisher) in a Bio-Rad CFX384 system. […] Relative mRNA quantification was performed by comparing test groups and normal control group, after normalization with endogenous control gene human 18S (Hs99999901_s1).

[2] = test system: Primary non-IBD patient-derived colonic fibroblasts; experiment: TGF-β1-induced collagen expression in primary non-IBD patient-derived colonic fibroblasts; type: cell-based, human; conditions: TGF-β1 10 ng/ml; elafin 1 μg/ml 24 hours
Procedure: Cleveland Clinic IRB directives (IRB #17-1167). Primary non-IBD patient-derived colonic fibroblasts (H6231) were purchased from Cell Biologics. All primary colonic fibroblasts were cultured in fibroblast medium (M2267, Cell Biologics). Human colonic CCD-18Co fibroblasts (ATCC) were cultured in minimal essential medium Eagle's medium (MEM) containing 10% fetal bovine serum and 1% penicillin-streptomycin 6, 20. All fibroblasts were grown to 80% confluence and then switched to serum-free media overnight for experiments.
For activation of protease-activated receptors (PARs), fibroblasts were pretreated with 0.8% DMSO, 10 μM PAR1 agonist TRAP-6 (HY-P0078, MCE), 10 μM PAR2 agonist SLIGKV-NH2 (Protease-Activated Receptor-2, amide, HY-P0283, MCE), or 0.4 μg/ml PAR2-activating protease recombinant cathepsin S (1183-CY-010, R&D Systems) for 30 minutes. For miR205-5p activation, fibroblasts were transfected with (30 picomoles/well) either control (YM00479902) or miR205-5p miRCURY LNA mimic (YM00472340) from Qiagen via Lipofectamine 3000 transfection reagent (L3000001, ThermoFisher) in Opti-MEM (#31985062, ThermoFisher) overnight. For miR205-5p inhibition, fibroblasts were pretreated with 50nM either control (Y100199006) or miR205-5p power inhibitors (Y104101508-DDA) from Qiagen overnight. […]

[3] = test system: CCD-18Co fibroblasts; experiment: Elafin exposure of serum-starved CCD-18Co fibroblasts (Example 1); type: cell-based, human; conditions: elafin 0.1-3 μg/ml, 24 hours, no TGF-β1
Procedure: FIG. 6. Elafin promotes fibrogenesis in human colonic fibroblasts. (A) The human colonic CCD-18Co fibroblasts were incubated with 100 μl/ml (10%) of human sera from normal, stricturing CD, and non-stricturing CD patients in serum-free DMEM for 24 hours. (B) The human colonic CCD-18Co fibroblasts were incubated with 100 μl/ml (10%) of human sera from high elafin CD group (>8000 pg/ml) and low elafin CD group (<8000 pg/ml) in serum-free DMEM for 24 hours. (C) Serum-starved CCD-18Co fibroblasts were pretreated with 15 μg/ml of anti-elafin neutralizing antibody or control antibody for 30 minutes, followed by exposure to (100 μl/ml) human sera from normal and stricturing CD patients for 24 hours. Six serum donors per group. (D) Serum-starved CCD-18Co fibroblasts were exposed to elafin (0.1-3 μg/ml) for 24 hours. Pro-COL1A1 protein levels in cell lysates were determined by ELISA. (E) Serum-starved primary human intestinal fibroblasts from CD patients were exposed to elafin for 24 hours. mRNA expression was determined by real-time RT-PCR.
Human CCD-18Co intestinal fibroblasts (ATCC) (2×10^6 cells/plate) were cultured in minimal essential medium Eagle's medium (MEM) containing 10% fetal bovine serum (FBS) and 1% penicillin-streptomycin (P/S) (Invitrogen). […]

[4] = test system: mouse RAW264.7 macrophages; experiment: TNFα secretion in RAW264.7 macrophages; type: cell-based; conditions: elafin 10-1000 ng/ml, 6 h
Procedure: Mouse RAW264.7 macrophages (#TIB-71, ATCC) were cultured in Dulbecco's modified Eagle's medium (DMEM) (#11965-084, ThermoFisher) with 10% fetal bovine serum (FBS) (#10437-028, Life Technologies) and 1% penicillin/streptomycin/glutamine (P/S/G) (#10378-016, Life Technologies) mixture. The macrophages were serum-starved overnight, followed by exposure to fatty acid-free bovine serum albumin (BSA) (A7030, Sigma), sodium palmitate (P9767, Sigma), or lipopolysaccharide (LPS) (L5418, Sigma) for 2 h, and then the addition of elafin (10-1000 ng/ml) for additional 6 h. The cell-conditioned media were used for mouse TNFα ELISA (DY410, R&D Systems).

## Elafin: small (6 kDa) human elastase-specific protease inhibitor and antimicrobial peptide; active form SEQ ID NO: 2 (AQEPVKGPVSTKPGSCPIILIRCAMLNPPNRCLKDTDCPGIKKCCEGSCGMACFVPQ; listed as Homo sapiens)
[1]
  collagen (COL3A1 and COL1A2), ACTA2 and TGF-b1 mRNA expression: increased
[2]
  TGF-β1 induced COL1A2 and ProCOL1A1 protein expression: reversed
[3]
  pro-collagen 1A1 protein expression: significantly increased
[4]
  LPS- and palmitate-induced TNFα secretion: did not affect
